One block for each compound: values may come before it.
Tests used:
[1] = victim erlotinib, cancer subjects; cited from earlier work
[2] = system: anlotinib metabolism in HLM; assay: in vitro; settings: human, pH 7.4
CYP3A5 [3] = molecular target: T1, CYP3A5 (Homo sapiens, UniProt P20815); assay: biochemical
HLM = settings: anlotinib as substrate in HLMs
human recombinant CYP3A4 = human recombinant CYP3A4 (Homo sapiens, UniProt P08684); settings: calculated from ISEF (0.49) and CLint,rhCYP
CYP1A2 [4] = molecular target: T2, CYP1A2 (Homo sapiens, UniProt P05177); settings: calculated from ISEF (0.69) and CLint,rhCYP
T2 sequence (P05177 1-516): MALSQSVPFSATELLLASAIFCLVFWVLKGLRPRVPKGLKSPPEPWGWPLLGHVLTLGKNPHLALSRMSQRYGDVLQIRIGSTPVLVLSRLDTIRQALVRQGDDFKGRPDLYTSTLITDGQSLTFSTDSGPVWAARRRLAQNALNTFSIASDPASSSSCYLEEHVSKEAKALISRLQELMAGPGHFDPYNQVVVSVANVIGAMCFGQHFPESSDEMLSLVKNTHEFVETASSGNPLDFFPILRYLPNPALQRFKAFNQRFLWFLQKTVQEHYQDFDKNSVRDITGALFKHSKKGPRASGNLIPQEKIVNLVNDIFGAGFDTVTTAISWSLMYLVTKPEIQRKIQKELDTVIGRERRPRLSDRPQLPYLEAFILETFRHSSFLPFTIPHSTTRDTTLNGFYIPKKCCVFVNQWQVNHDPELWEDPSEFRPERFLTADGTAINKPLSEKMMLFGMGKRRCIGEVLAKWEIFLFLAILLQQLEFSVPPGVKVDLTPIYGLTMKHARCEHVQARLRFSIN

CYP3A5 [5] = molecular target: T1, CYP3A5; settings: calculated from ISEF (0.43) and CLint,rhCYP
P-gp = settings: previous studies and drug package inserts; cited from earlier work
in vitro = settings: human, microsomes, pH 7.4
[6] = Chinese cancer volunteers; cited from earlier work
CYP1A2 [7] = molecular target: T2, CYP1A2; assay: biochemical

T1 sequence (P20815 whole entry): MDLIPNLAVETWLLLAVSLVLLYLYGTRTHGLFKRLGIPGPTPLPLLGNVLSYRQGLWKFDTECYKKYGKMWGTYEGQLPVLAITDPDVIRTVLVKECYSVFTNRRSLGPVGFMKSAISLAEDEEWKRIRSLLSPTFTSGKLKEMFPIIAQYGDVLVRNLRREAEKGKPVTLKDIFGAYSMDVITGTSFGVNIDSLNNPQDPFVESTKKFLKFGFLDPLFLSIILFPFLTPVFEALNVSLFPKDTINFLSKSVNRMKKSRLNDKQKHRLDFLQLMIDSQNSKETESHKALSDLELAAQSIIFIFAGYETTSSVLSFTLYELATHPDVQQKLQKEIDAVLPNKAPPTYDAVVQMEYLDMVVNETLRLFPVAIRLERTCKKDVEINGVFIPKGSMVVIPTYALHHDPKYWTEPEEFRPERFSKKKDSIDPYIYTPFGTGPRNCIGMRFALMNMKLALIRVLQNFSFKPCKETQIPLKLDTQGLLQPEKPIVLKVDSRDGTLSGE
human recombinant CYP3A4, sequence (P08684 whole entry): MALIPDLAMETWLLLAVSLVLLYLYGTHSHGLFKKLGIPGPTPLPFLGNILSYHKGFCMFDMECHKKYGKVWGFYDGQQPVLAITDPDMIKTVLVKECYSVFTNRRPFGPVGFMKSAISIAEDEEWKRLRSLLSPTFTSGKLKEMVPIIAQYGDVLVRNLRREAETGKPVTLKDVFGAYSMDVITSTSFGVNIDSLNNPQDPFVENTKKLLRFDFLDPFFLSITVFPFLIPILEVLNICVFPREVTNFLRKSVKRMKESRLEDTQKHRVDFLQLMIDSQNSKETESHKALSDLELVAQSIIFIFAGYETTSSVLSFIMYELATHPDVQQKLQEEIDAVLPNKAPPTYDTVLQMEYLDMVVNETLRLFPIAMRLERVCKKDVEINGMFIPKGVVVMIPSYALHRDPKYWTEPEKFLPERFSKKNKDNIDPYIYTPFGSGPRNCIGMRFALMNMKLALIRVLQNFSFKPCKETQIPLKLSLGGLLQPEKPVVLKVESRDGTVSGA

Ki [2]: 3.02 µM
Ki (CYP3A5 [3]): 6.88 µM
SMILES: CC[C@H]1OC(=O)[C@H](C)[C@@H](O[C@H]2C[C@@](C)(OC)[C@@H](O)[C@H](C)O2)[C@H](C)[C@@H](O[C@@H]2O[C@H](C)C[C@H](N(C)C)[C@H]2O)[C@](C)(OC)C[C@@H](C)C(=O)[C@H](C)[C@@H](O)[C@]1(C)O [clarithromycin]
Inhibition mechanism (Lineweaver-Burk plots) (HLM): mixed inhibitors

Ki [2]: 4.87 µM
Ki (CYP1A2 [7]): 4.73 µM
SMILES: C[C@H]1COc2c(N3CCN(C)CC3)c(F)cc3c(=O)c(C(=O)O)cn1c23 [levofloxacin]
Inhibition mechanism (Lineweaver-Burk plots) (HLM): mixed inhibitors

Second part, the compound before the results:

SMILES: CO[C@H]1/C=C/O[C@@]2(C)Oc3c(C)c(O)c4c(O)c(c(/C=N/N5CCN(C)CC5)c(O)c4c3C2=O)NC(=O)/C(C)=C\C=C\[C@H](C)[C@H](O)[C@@H](C)[C@@H](O)[C@@H](C)[C@H](OC(C)=O)[C@@H]1C [rifampicin]
AUC0–∞ of erlotinib reduced to (fold) by the labelled perpetrator [1]: 0.33 fold
Cmax of erlotinib reduced to (fold) by the labelled perpetrator [1]: 0.71 fold

SMILES: COc1cc2c(Oc3ccc4[nH]c(C)cc4c3F)ccnc2cc1OCC1(N)CC1 [Anlotinib]
fm, share of anlotinib metabolized by CYP3A4 (human recombinant CYP3A4): 35%
fm, share of anlotinib metabolized by CYP1A2 (CYP1A2 [4]): 35%
fm, share of anlotinib metabolized by CYP3A5 (CYP3A5 [5]): 29%
P-gp substrate characteristics (P-gp): non-substrate
microsomal CLint (in vitro): 18 µL/min/mg
CLpo [6]: 11.014 L/h

SMILES: CC(=O)N1CCN(c2ccc(OCC3COC(Cn4ccnc4)(c4ccc(Cl)cc4Cl)O3)cc2)CC1 (stereo not drawn) [ketoconazole]
Inhibition mechanism (Lineweaver-Burk plots) (HLM): mixed inhibitors

Reference: article PMC11490238 (Drug Design, Development and Therapy, 2024)
